The values that follow come from US20230304010A1, “COMPOSITIONS AND METHODS FOR TREATING VIRAL INFECTIONS” (priority 2020, published 2023).

Read-outs that look alike come from different tables or passages of the source.

The test system of data set [1] is SARS-CoV-2 Delta variant.
Data set [2] has as its system SARS-CoV-2 Beta variant.
Data set [3] relates to ACE2 : SARS-CoV-2 Spike Gamma (P1/Brazil) variant. It counts as binding.
In data set [4] the test system is ACE2 : SARS-CoV-2 Spike Beta (B1.351/South Africa) variant. It counts as binding. As to conditions: read-out: IC50, Beta (B1312).
Data set [5] deals with ACE2 : SARS-CoV-2 Spike Alpha (B1.1.7/United Kingdom) variant. It counts as binding. As to conditions: read-out: IC50, Alpha (B117).
In data set [6] the test system is SARS-CoV-2 Alpha variant.
Data set [7] concerns ACE2 : SARS-CoV-2 Spike Epsilon (B1429) variant. It counts as binding.
Data set [8] deals with ACE2 : SARS-CoV-2 Spike Delta (B1 617 2/India) variant. The class given is binding. Particulars: read-out: IC50, Delta (B1617).
The subject of data set [9] is SARS-CoV-2 variants (Alpha/Beta/Delta). The class given is cell-based.

In the case of “Ac-N*GVEGFNK*Ava-LWRALWRLWRSLWRLLWK-NH2 [Seq17]”, the IC50 in data set [1] (read-out: Delta (B1617) IC50) is 25.7 ± 10 nM; in data set [1] (read-out: IC50, Delta (B1617)), 25.7 ± 10 nM; in data set [2] (read-out: Beta (B1312) IC50), 118 ± 15 nM; in data set [2] (read-out: IC50, Beta (B1312)) it was 118 ± 15 nM; in data set [3] it was 87.2 ± 20 nM; in [4] it was 75.2 ± 21 nM. Further, the IC50 in [5] is 136 ± 21 nM; in data set [6] (read-out: Alpha (B117) IC50), 125 ± 24 nM; in data set [6] (read-out: IC50, Alpha (B117)), 125 ± 24 nM; in data set [7], 94.7 ± 17 nM; in data set [8], 48.2 ± 11 nM.
Regarding “GGCCAAACTGTCACTAAGAAA (chemistry not given here) [DIVC-6]”, the figures for the IC50 in data set [1] (read-out: Delta (B1617) IC50), in data set [2] (read-out: Beta (B1312) IC50) and in [6] (read-out: Alpha (B117) IC50) were 91.3 nM, 58.5 nM and 84.5 nM, respectively. Besides, the “inhibitory activity against all SARS-CoV2 variant viruses” value in data set [9] was “potent inhibitory activity”.
As to `CC(=O)N[C@@H](CCC(=O)O)C(=O)N[C@@H](CCC(N)=O)C(=O)N[C@@H](C)C(=O)N[C@@H](CCCCN)C(=O)N[C@H](C(=O)N[C@@H](Cc1ccccc1)C(=O)N[C@@H](CC(C)C)C(=O)N[C@@H](CC(=O)O)C(=O)N[C@@H](CCCCN)C(=O)N[C@@H](Cc1ccccc1)C(=O)N[C@@H](CC(N)=O)C(=O)N[C@@H](Cc1c[nH]cn1)C(=O)N[C@@H](CCC(=O)O)C(=O)N[C@@H](C)C(=O)N[C@@H](CCC(=O)O)C(=O)N[C@@H](CC(=O)O)C(=O)N[C@@H](CC(C)C)C(=O)N[C@@H](Cc1ccccc1)C(=O)NCCCCCC(=O)N[C@@H](CC(C)C)C(=O)N[C@@H](Cc1c[nH]c2ccccc12)C(=O)N[C@@H](CCCNC(=N)N)C(=O)N[C@@H](C)C(=O)N[C@@H](CC(C)C)C(=O)N[C@@H](Cc1c[nH]c2ccccc12)C(=O)N[C@@H](CCCNC(=N)N)C(=O)N[C@@H](CC(C)C)C(=O)N[C@@H](Cc1c[nH]c2ccccc12)C(=O)N[C@@H](CCCNC(=N)N)C(=O)N[C@@H](CO)C(=O)N[C@@H](CC(C)C)C(=O)N[C@@H](Cc1c[nH]c2ccccc12)C(=O)N[C@@H](CCCNC(=N)N)C(=O)N[C@@H](CC(C)C)C(=O)N[C@@H](CC(C)C)C(=O)N[C@@H](Cc1c[nH]c2ccccc12)C(=O)N[C@@H](CCCCN)C(N)=O)[C@@H](C)O` [Seq33], the “fold stronger anti-SARS-CoV-2 activity than Remdesivir” value in data set [9] was found to be 200 fold. Besides, the IC50 in data set [3] came to 20.2 ± 5 nM; in [4], 28.8 ± 10 nM; in [5], 17.8 ± 9 nM; in data set [7] it was 31.4 ± 9 nM; in data set [8] it was 25.7 ± 8 nM.
